Assay results as given in US12264146B2, “Rho kinase inhibitor, method for preparing same and uses thereof” (BEIJING INCREASE INNOVATIVE DRUG CO., LTD., priority 2018, dated 2025).

How the values were obtained:
[1] = test system: subarachnoid hemorrhage in rats; experiment: Rat subarachnoid hemorrhage (SAH) model by intravascular puncture, Sugawara bleeding score; type: in vivo; design: dose or concentration left out as unconfirmed; conditions: tail vein injection, 2 administrations 4 h apart, scored 24 h after first administration (Sugawara)
Experimental: Rat subarachnoid hemorrhage (SAH) model was built by intravascular puncture. After being weighed, the rats were anesthetized with sodium pentobarbital (50 mg/kg) or chloral hydrate (300 mg/kg) by intraperitoneal injection, then fixed on their back and maintained the animal's body temperature at about 37° C. The rats' neck skin was shaved for surgery, a median incision was made on the neck, and muscle and fascia were separated along the inner edge of stemocleidomastoid muscle to expose the main and bifurcation of right common carotid artery, and expose the external and internal carotid arteries.
The bifurcation of internal carotid artery was gently clamped with ophthalmic forceps, the bifurcation of the internal carotid artery and the external carotid artery was pierced with a 6-gauge syringe needle, the ophthalmic forceps holding the bifurcation of internal carotid artery was slightly loosen, and No. 3 fishing thread was used to perform a puncture at the bleeding point, the ophthalmic forceps on the internal carotid artery was loosen, and the fishing thread was inserted into skull. […] After staying for 15 seconds, the thread for puncture was completely removed, and the skin was sutured after compression to stop the bleeding. 1.6 million units of penicillin potassium (400,000 units/ml, 0.2 ml/rat) was intramuscularly injected to avoid wound infection. For the sham operation group, the thread for puncture was removed when resistance was felt without piercing the bifurcation of the anterior cerebral artery and the middle cerebral artery, while the remaining operation steps were the same as the model group. After the operation, the rats were transferred to a thermal insulation blanket, then transferred to a squirrel cage when they were basically awake, and kept normally.
In this test experimental, 32 groups were set, i.e., Groups 1 to 32, in which Group 1 was a normal control group (healthy rats), Group 2 was a sham operation control group (not modeling by puncture), Group 3 was a model control group (modeling by puncture, administrated with normal saline), Group 4 was a positive control group (modeling by puncture, administrated with fasudil hydrochloride injection), and Groups 5 to 32 were test groups of the compounds of the present application (modeling by puncture, respectively administrated with the compounds of the present application); and there were 8 animals (purchased from SPF (Beijing) Biotechnology Co., Ltd., the certificate number was SYXK (Beijing) 2016-0002) in each group, half of them were female and half of them were male. The animals were subjected to fasting for 12 to 18 hours without prohibition of drinking water before modeling. […] The rats were euthanized 24 h after the first administration, and the brains were taken. According to Sugawara's method (Reference: Sugawara T, Ayer R, Jadhav V, et al. A new grading system evaluating bleeding scale in filament perforation subarachnoid hemorrhage rat model. J Neurosci Methods. 2008, 167(2):327-34), the subarachnoid hemorrhage amounts were scored, and the scoring results were as follows: […]

prostacyclin (PGI2) = experiment: Expression of prostacyclin (PGI2) in EA.Hy926 endothelial cells, ELISA kit; type: cell-based; conditions: EA.Hy926 cell supernatant, 24 h
Experimental: (§1) Commercially available cytokine kits were used to detect the effects of the compounds of the present application on vascular endothelium-derived contracting factor endothelin, vascular endothelium-derived relaxing factor endothelial nitric oxide synthase, nitric oxide, and prostacyclin factor. The detection was performed according to the kit instructions. When testing the effect of the compound of the present application on cytokines, a normal control group, a fasudil hydrochloride group, and high-, medium- and low-dose groups of the compounds of the present application were set up for testing. The fasudil hydrochloride used in this test example was purchased from Beijing Sihuan Pharmaceutical Co., Ltd., with the SFDA approval number of H20173349. The EA.Hy926 cells used in this test example were purchased from Suzhou Beina Chuanglian Biotechnology Co., Ltd.
EA.Hy926 cells were taken and inoculated in a 96-well plate at 5×10^4 cells/mL, 100 μL per well, and cultured adherently for 24 hours, then the test compound prepared in DMEM medium was added, and an equal volume of DMEM medium was added in the normal control group, then the cells were cultured at 37° C. for 24 hours, and then the cell supernatant was taken and placed in an EP tube, and centrifuged for 15 min at 3000 r/min and 15° C. The resulting supernatant was transferred to a new EP tube, and then the detection was performed according to the instruction of ELISA kit (purchased from Wuhan Elabscience Biotechnology Co., Ltd., Cat. No. E-EL-0022c), and the detection results were shown in Table 3.

nitric oxide (NO) = experiment: Synthesis and secretion of nitric oxide (NO) in EA.Hy926 endothelial cells, NO detection kit; type: cell-based; conditions: EA.Hy926 cell supernatant, 24 h
Experimental: as §1
EA.Hy926 cells were inoculated in a 24-well plate at 5×10^5 cells/mL, 400 μL per well, and cultured adherently for 18 hours, then the supernatant was discarded, the test compound prepared in DMEM medium was added, and an equal volume of DMEM medium was added in the normal control group, then the cells was cultured for 24 h in incubator, and then the cell supernatant was collected and detected according to the instructions of NO detection kit (purchased from Beyotime Institute of Biotechnology, Cat. No. 062617171017), and the detection results were shown in Table 5.

SMILES | Cerebral hemorrhage volume score (x ± s) [1] | expression of prostacyclin in endothelial cells: Detection result of test compound at low dose (0.4 μM) (prostacyclin (PGI2)) [pg/mL] | expression of prostacyclin in endothelial cells: Detection result of test compound at medium dose (2 μM) (prostacyclin (PGI2)) [pg/mL] | expression of prostacyclin in endothelial cells: Detection result of test compound at high dose (10 μM) (prostacyclin (PGI2)) [pg/mL] | nitric oxide secretion in endothelial cells: Detection result of test compound at low dose (0.4 μM) (nitric oxide (NO)) [μm] | nitric oxide secretion in endothelial cells: Detection result of test compound at medium dose (2 μM) (nitric oxide (NO)) [μm] | nitric oxide secretion in endothelial cells: Detection result of test compound at high dose (10 μM) (nitric oxide (NO)) [μm]
CCCC[C@@H]1CNCCCN1S(=O)(=O)c1cccc2c(O)nccc12 [Compound R-YK1611, (R)-5-((2-butyl-1,4-diazacycloheptan-1-yl)sulfonyl)isoquinolin-1-ol] | 12.41 ± 2.03 | 232.61 ± 9.70 | 229.98 ± 11.41 | 249.23 ± 0.75 | 1.095 ± 0.095 | 1.109 ± 0.087 | 1.125 ± 0.016
C[C@@H]1CNCCCN1S(=O)(=O)c1cccc2cnccc12 [Compound R-YK1603, (R)-5-((2-methyl-1,4-diazacycloheptan-1-yl)sulfonyl)isoquinoline] | 12.06 ± 1.98 | 262.30 ± 0.77 | 272.58 ± 4.40 | 243.73 ± 15.66 | 1.207 ± 0.000 | 0.743 ± 0.070 | 0.910 ± 0.025
CC(C)[C@@H]1CNCCCN1S(=O)(=O)c1cccc2c(O)nccc12 [Compound R-YK1609, (R)-5-((2-isopropyl-1,4-diazacycloheptan-1-yl)sulfonyl)isoquinolin-1-ol] | 12.27 ± 2.02 | 259.20 ± 2.21 | 260.34 ± 7.94 | 238.68 ± 3.34 | 0.978 ± 0.028 | 1.014 ± 0.051 | 1.115 ± 0.006
O=S(=O)(c1cccc2cnccc12)N1CCCNC[C@H]1C1CC1 [Compound R-YK1608, (R)-5-((2-cyclopropyl-1,4-diazacycloheptan-1-yl)sulfonyl)isoquinoline] | 13.18 ± 1.97 | 257.55 ± 4.12 | 251.98 ± 10.41 | 242.23 ± 1.75 | 0.918 ± 0.008 | 0.984 ± 0.042 | 1.105 ± 0.007
COc1nccc2c(S(=O)(=O)N3CCCNC[C@H]3C)cccc12 [Compound R-YK1602, (R)-1-methoxy-5-((2-methyl-1,4-diazacycloheptan-1-yl)sulfonyl)isoquinoline] | 11.95 ± 2.04 | 248.71 ± 19.98 | 263.34 ± 15.04 | 241.51 ± 16.58 | 0.878 ± 0.006 | 0.914 ± 0.032 | 1.005 ± 0.006
C[C@@H]1CNCCCN1S(=O)(=O)c1cccc2c(O)ncc(C3CC3)c12 [Compound R-YK1600-1, (R)-4-cyclopropyl-5-((2-methyl-1,4-diazacycloheptan-1-yl)sulfonyl)isoquinolin-1-ol] | 13.37 ± 2.56 | 243.20 ± 2.28 | 242.34 ± 7.96 | 247.68 ± 3.34 | 1.012 ± 0.053 | 1.099 ± 0.201 | 1.148 ± 0.251
